Measured values: patent publication US11981646B1, “3-(4-methoxyphenyl)-5-{[5-methyl-2-(propan-2-yl)phenoxy]methyl}-1,2,4-oxadiazole as an antitumor and antimicrobial compound” (King Faisal University, priority 2023, dated 2024)

Assays:
[1] = test system: human prostate cancer cells (PC3); assay: Assessment of cytotoxicity by SRB assay, PC3 cells; format: cell-based; conditions: 0.01 μM to 100 μM for 72 h
Procedure: (§1) Human prostate cancer cells (PC3) and human osteosarcoma cells (MG-63) were obtained from Nawah Scientific Inc. (Mokatam, Cairo, Egypt) and cultured in DMEM (Dulbecco's modified eagle's medium), Gibco, USA, supplemented with fetal bovine serum (FBS) at a concentration of 10% and 100 U/mL of penicillin and streptomycin (PS). The Cells were incubated at 37° C. in a humidified environment that contained 5% CO2. Cells were seeded in 96-well plates as aliquots of 100 μL cell suspension and incubated in a complete media for 24 h. Afterward, cells were treated with 3-(4-methoxyphenyl)-5-{[5-methyl-2-(propan-2-yl)phenoxy]methyl}-1,2,4-oxadiazole at diverse concentrations ranging from 0.01 μM to 100 μM for 72 h. Then, cells were fixed at 4° C. for one hour with 150 μL of 10% trichloroacetic acid (TCA). After washing the cells five times with distilled water, 70 μL of sulforhodamine (SRB) solution (0.4% w/v) was added and incubated for 10 min at room temperature in a dark place. […] Then, 150 μL of Tris pH 10.5 (10 mM) was added, and the absorbance was measured at 540 nm using a BMG LABTECH®-FLUOstar Omega microplate reader (Ortenberg, Germany). Half maximal inhibitory concentrations (IC50) values were calculated for each experiment using GraphPad Prism 6 software. […] The inhibition was calculated using the following equation: Inhibition %=100−Average Viability

[2] = test system: human osteosarcoma cells (MG-63); assay: Assessment of cytotoxicity by SRB assay, MG-63 cells; format: cell-based; conditions: 0.01 μM to 100 μM for 72 h
Procedure: as §1

COc1ccc(-c2noc(COc3cc(C)ccc3C(C)C)n2)cc1 [3-(4-methoxyphenyl)-5-{[5-methyl-2-(propan-2-yl)phenoxy]methyl}-1,2,4-oxadiazole]
antiproliferative activity against prostate cancer cells (PC3) [1]: excellent antiproliferative activities
antiproliferative activity against osteosarcoma (MG-63) cells [2]: excellent antiproliferative activities
